Results taken from the supplement of paper PMC10307832.

Tests used:
Experiment in all cases: relative viability (nuclei count vs DMSO), 5 days (fraction); higher = more cells survive
[1] = compound: C1CNCCC1C2=CC(=NN2)C3=CC=NC=C3 + C[C@@H](Oc1cc(-c2cnn(C3CCNCC3)c2)cnc1N)c1c(Cl)ccc(F)c1Cl [Crizotinib] (partner 1 µM)
Summary of the method: (§1)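 Nuclei were stained with Hoechst during a one-step fixation (final 0.05% Triton X-100, 1% formaldehyde, 1 ug/ml Hoechst) carried out 5 days after dosing, then counted on 4× images. The cells, lung cancer lines in 1536-well plates, had been dosed by pin tool the day after seeding with one drug alone or a fixed anchor-drug dose plus five library-drug doses (not always all listed) in √10 steps. Relative viability is the nuclei count in treated wells divided by that in vehicle wells, and each value is the median of duplicate plates.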

[2] = compound: C1CNCCC1C2=CC(=NN2)C3=CC=NC=C3 + N=C(N)NC(=N)NCCc1ccccc1 [Phenformin] (partner 250 µM)
Summary of the method: as §1

[3] = compound: C[C@@H](N)c1ccc(C(=O)Nc2ccnc3[nH]ccc23)cc1 + Cc1nc(Nc2ncc(C(=O)Nc3c(C)cccc3Cl)s2)cc(N2CCN(CCO)CC2)n1 [Dasatinib] (partner 0.075 µM)
Summary of the method: as §1

Tanzisertib + Bortezomib = compound: O[C@H]1CC[C@H](Nc2ncc3nc(Nc4c(F)cc(F)cc4F)n([C@H]4CCOC4)c3n2)CC1 [Tanzisertib] + CC(C)C[C@H](NC(=O)[C@H](Cc1ccccc1)NC(=O)c1cnccn1)B(O)O [Bortezomib] (partner 0.002 µM)
Summary of the method: as §1

| Cell Line | relative viability ([1]; first compound 0.08 µM) | relative viability ([1]; first compound 0.8 µM) | relative viability ([1]; first compound 2.53 µM) | relative viability ([1]; first compound 8 µM) | relative viability ([2]; first compound 0.08 µM) | relative viability ([2]; first compound 0.8 µM) | relative viability ([2]; first compound 2.53 µM) | relative viability ([2]; first compound 8 µM) | relative viability ([3]; first compound 0.04 µM) | relative viability ([3]; first compound 0.1265 µM) | relative viability ([3]; first compound 0.4 µM) | relative viability ([3]; first compound 1.265 µM) | relative viability ([3]; first compound 4 µM) | relative viability (Tanzisertib + Bortezomib; first compound 0.08 µM) | relative viability (Tanzisertib + Bortezomib; first compound 0.253 µM) | relative viability (Tanzisertib + Bortezomib; first compound 0.8 µM) | relative viability (Tanzisertib + Bortezomib; first compound 2.53 µM) | relative viability (Tanzisertib + Bortezomib; first compound 8 µM) |
| --- | --- | --- | --- | --- | --- | --- | --- | --- | --- | --- | --- | --- | --- | --- | --- | --- | --- | --- |
| NCI-H1666 | 0.762 | 0.935 | 0.989 | 0.902 | 0.571 | 0.587 | 0.561 | 0.553 | 0.727 | 0.803 | 0.822 | 0.722 | 0.625 | 0.75 | 0.732 | 1.03 | 0.872 | 0.909 |
| NCI-H1734 | 0.663 | 0.687 | 0.653 | 0.654 | 0.348 | 0.421 | 0.36 | 0.401 | 0.347 | 0.445 | 0.38 | 0.284 | 0.351 | 1.04 | 0.936 | 0.856 | 1.02 | 0.881 |
| NCI-H1755 | 0.967 | 0.836 | 0.887 | 0.776 | 0.631 |  | 0.688 | 0.553 | 0.292 | 0.449 | 0.457 | 0.316 | 0.223 | 1.03 | 0.995 | 0.986 | 0.957 | 0.942 |
| NCI-H1792 | 0.987 | 0.983 | 1.06 | 0.959 | 0.231 | 0.237 | 0.38 | 0.227 | 0.831 | 0.875 | 0.826 | 0.672 | 0.534 | 0.98 | 1.08 | 0.937 | 0.882 | 0.982 |
| NCI-H1915 | 0.88 | 0.906 | 0.855 | 0.909 | 0.376 | 0.389 | 0.346 | 0.377 | 0.315 | 0.262 | 0.276 |  | 0.308 | 0.992 | 1.07 | 1 | 0.978 | 0.989 |
| NCI-H1975 | 0.988 | 1.05 | 0.963 | 0.889 | 0.406 | 0.412 | 0.415 | 0.417 | 0.408 | 0.459 | 0.363 | 0.369 | 0.262 | 0.428 | 0.467 | 0.371 | 0.401 | 0.347 |
| NCI-H1993 | 0.867 | 0.876 | 0.767 | 0.896 | 0.497 | 0.488 | 0.547 | 0.533 | 0.745 | 0.754 | 0.856 | 0.917 | 0.8 | 1.14 | 1.07 | 1.12 | 1.04 | 0.857 |
| NCI-H2009 | 0.96 | 1.08 | 1.08 | 1.03 | 0.481 | 0.528 | 0.51 | 0.489 | 0.18 | 0.268 | 0.199 | 0.171 | 0.154 | 1.34 | 1 | 1.01 | 1.13 | 0.968 |
| NCI-H2023 | 0.427 | 0.688 | 0.738 | 0.709 | 0.357 | 0.411 | 0.498 | 0.423 | 0.592 | 0.56 | 0.502 | 0.487 | 0.465 | 1.18 | 1 | 1.06 | 0.855 | 0.371 |
| NCI-H2085 | 0.976 | 0.938 | 0.973 | 0.825 | 0.744 | 0.418 | 0.801 | 0.817 | 0.294 | 0.322 | 0.421 | 0.33 | 0.391 | 1.11 | 1.08 | 0.992 | 1.07 | 1.09 |
| NCI-H2087 | 0.837 | 1.02 | 0.976 | 0.666 | 0.459 | 0.479 | 0.496 | 0.479 | 0.956 | 0.912 | 0.869 |  | 0.65 | 0.985 | 0.931 | 0.835 | 0.9 | 0.857 |
| NCI-H2126 | 0.952 | 1.05 | 1.01 | 0.979 | 0.483 | 0.51 | 0.556 | 0.577 | 0.72 | 0.664 | 0.622 | 0.626 | 0.619 | 1.11 | 1.18 | 1.09 | 1.11 | 1.2 |
| NCI-H2228 | 0.566 | 0.428 | 0.486 | 0.482 | 0.328 | 0.368 | 0.286 | 0.359 | 0.677 | 0.505 | 0.546 | 0.482 | 0.436 | 1.11 | 0.948 | 1.08 | 0.801 | 0.721 |
| NCI-H2347 | 0.681 | 0.676 | 0.939 | 0.781 | 0.398 | 0.225 | 0.412 | 0.48 | 0.54 | 0.314 | 0.374 |  | 0.574 | 0.737 | 0.837 | 1.27 | 1.29 | 0.628 |
| NCI-H2405 | 0.87 | 0.777 | 0.873 | 0.825 | 0.44 | 0.285 | 0.385 | 0.383 | 0.186 | 0.2 | 0.187 | 0.19 | 0.162 | 1.03 | 1.02 | 1.07 | 0.975 | 0.794 |
